Legend:
[1] = system: E. coli, B. subtilis, A. tumefaciens, L. lactis, M. conglomeratus, C. crescentus and S. aureus; experiment: Short pulse labeling of evolutionarily distinct bacteria; type: cell-based; details: pulsed for 2%-8% of generation time, immediately fixed
[2] = system: Agrobacterium tumefaciens; experiment: Cell wall / PG labeling of live A. tumefaciens, fluorescence microscopy; type: cell-based; details: for incorporation into the cell wall: control experiments, fluorescent D-Ala vs fluorescent L-Ala

| Compound | visibility of sites of active cell wall synthesis [1] | incorporation into the cell wall [2] | PG labeling, long labeling pulses ([2]; live A. tumefaciens, long pulse) |
| --- | --- | --- | --- |
| NC(CNC(=O)c1cc2ccc(O)cc2oc1=O)C(=O)O (stereo not shown) [HADA] | sites of active synthesis were clearly visible | incorporated into the cell wall | uniformly label PG |
| N[C@@H](CNC(=O)c1cc2ccc(O)cc2oc1=O)C(=O)O [HALA] |  | only D-HCC was incorporated |  |

— patent US10544444B2, “Compositions for in situ labeling of bacterial cell walls with fluorophores and methods of use thereof” (priority 2012, dated 2020)
